Experimental data reported in patent US8685720B2, “Engineered cellular pathways for programmed autoregulation of differentiation” (The Trustees of Princeton University, priority 2006, dated 2014).
Entries after “also recorded” stand apart in the source; their conditions may differ.

System: mammalian version of LuxR in 293FT cells
Assay: 30C6HSL detection by mammalian receiver cells expressing chimeric LuxR-activator
Type: cell-based
Conditions: P65-LuxR fusion, synthetic lux promoter, exogenous 30C6HSL
Source text: FIG. 2: (a) 30C6HSL synthesis by mammalian 293FT cells. Supernatant from the cells' growth media was collected and filter sterilized. Histograms show the fluorescence intensities of bacterial cells sensitive to 30C6HSL grown in the filtered supernatant, expressing green fluorescent protein due to 30C6HSL from the mammalian cells. (b) 30C6HSL detection by mammalian receiver cells. […] (c) Controlled stem cell differentiation with genetically inducible systems. Three different lentiviral genetic constructs were built, enabling exogenous chemical induction into myoblasts, adipocytes, or maintenance of stem cell properties. […] In addition, the marker protein for myoblasts, dystrophin, was expressed from these cells (data not shown). […] In a separate experiment, induced expression of Nanog supplanted the need for a growth factor usually required to maintain the overall character of mES cells.
The 30C6HSL detection pathway consists of a signal transducer that binds 30C6HSL and activates transcription of genes controlled by a synthetic lux promoter. The 30C6HSL signal transducer is a chimeric LuxR-activator protein created by the fusion of a P65 mammalian activation domain to a codon optimized mammalian version of a bacterial LuxR.

CCCC(=O)CC(=O)N[C@H]1CCOC1=O [30C6HSL]
response (EGFP expression) to the addition of 30C6HSL: strong response; also recorded: express EGFP only upon induction with exogenous 30C6HSL
